In patent US5008252A, “Process for inhibiting herpes simplex virus-specified thymidine kinase” (The University of North Carolina at Chapel Hill, priority 1987, dated 1991):
“And” between values parts separate entries of the source, which are not always exact repeats. Equal entries are not always repeated. “Also recorded” adds a separate entry of the source.

Tests used:
[1] = system: HSV-1 (strain KOS)-infected HeLa BU cells; experiment: Virus yield assay; assay type: cell-based
Description: Cell and virus growth inhibition. Cell growth inhibition and the virus yield assay were performed in accordance with the protocol described by Cheng, Y.-C., Grill, S.P., Ruth, J. and Bergstrom, D. E. (Antimicrob. Agents Chemother. 18:957-961 (1980)) with the exceptions that all studies were done using 5% dialyzed fetal bovine serum; the multiplicity of infection was 3 PFU/cell and Vero cells were used instead of CV-1 cells for titration in the virus yield assays.

[2] = target: T1, human cytosolic dThd kinase (Homo sapiens, UniProt P04183); experiment: dThd kinase assay in vitro; assay type: biochemical; settings: purified enzyme; concentrations as high as 150 μM; 100 μM [14C]dThd
T1 construct: cellular cytosolic dThd kinase used to determine the Ki values was isolated from KB6B cells; endogenous in cells; host or cells: KB6B cells
T1 sequence (P04183 whole entry): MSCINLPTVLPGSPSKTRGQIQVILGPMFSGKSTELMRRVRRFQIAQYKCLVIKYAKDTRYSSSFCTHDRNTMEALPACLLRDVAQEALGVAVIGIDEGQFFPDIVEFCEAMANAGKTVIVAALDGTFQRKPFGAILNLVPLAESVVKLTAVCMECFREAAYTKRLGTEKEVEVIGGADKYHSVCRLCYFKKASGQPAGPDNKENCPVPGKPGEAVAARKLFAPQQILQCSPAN
From the text: (§1) Enzyme purification, enzyme assays, IC50 and Ki determinations. The cellular cytosolic dThd kinase used to determine the Ki values was isolated from KB6B cells. The HSV-1 and HSV-2dThd kinases were extracted from dThd kinase-deficient HeLa BU cells infected with HSV-1 (strain KOS) and HSV-2(strain 333), respectively. All of the dThd kinases were purified using affinity column chromatography procedures described by Lee, L. S. and Cheng, Y.-C. (J. Biol. Chem. 251:2600-2604 (1976)). The dThd kinase assay used was the same as that described by Cheng, Y.-C. & Ostrander, M. (J. Biol. Chem. 251:2605-2610 (1976)). Incubations were conducted at 37° C. for 60 min and the Ki and 50% […] concentration (IC50) values were determined as described by Cheng, Y.-C. and Prusoff, W. H. (Biochem. Pharmacol. 22:3099-3108 (1976)).

[3] = target: HSV-1 B3 dThd kinase in infected HeLa BU cells (Human alphaherpesvirus 1 strain SC16, UniProt P06479); experiment: Intracellular dThd kinase activity ([14C]dThd phosphorylation); assay type: cell-based, HSV-1 (strain B3); settings: intracellular [14C]dThd phosphorylation
Description: (§2) Intracellular dThd kinase activity. HeLa S3 or HeLa BU cells (1.5×10^6 /ml) were mock infected or infected with HSV-1 or HSV-2at 3 PFU/cell and incubated at 37° C. for a 1 h adsorption period. The medium was then removed, and the cells were washed with growth medium and resuspended at a cell density of 5×10^5 cells/ml in RPMI 1640 medium supplemented with kanamycin (100 μg/ml) and 5% dialyzed fetal bovine serum. At 9 h post-HSV infection, [14C]dThd (0.16 μCi/ml; 1 μM dThd) and different amounts of 5'-Et-dThd were added to the medium depending on experimental conditions. At the end of the labeling period (1 h), the cells were pelleted by centrifugation, washed with phosphate-buffered-saline (PBS) and resuspended in a small volume of PBS. Aliquots were then pipetted directly onto DE81 discs which were immediately washed in 100% EtOH. The DE81 discs were washed two additional times in 100% EtOH, and then radioactivity associated with the discs was measured by scintillation counting in 5 ml of aqueous counting fluid. In this manner, total intracellular dThd kinase activity was determined from the sum of radioactive acid soluble dThd nucleotides plus the acid insoluble dTMP associated with DNA, both precipitated directly on the DE81 discs.

[4] = system: mock infected HeLa S3 cells; experiment: Intracellular dThd phosphorylation; assay type: cell-based; settings: increasing amounts of 5'-Et-dThd
Description: as §2

[5] = system: HSV-1-infected HeLa S3 cells; experiment: Intracellular dThd phosphorylation; assay type: cell-based; settings: 25 μM, 9 h post infection, 1 h labeling
Description: as §2

[6] = target: HSV-1 SC16 dThd kinase in infected HeLa BU cells (Human herpesvirus 1, UniProt P06479); experiment: Intracellular dThd kinase activity ([14C]dThd phosphorylation); assay type: cell-based, HSV-1 (strain SC16); settings: intracellular [14C]dThd phosphorylation
Description: as §2

[7] = target: HSV-1 (strain KOS) dThd kinase-associated dTMP kinase (Human alphaherpesvirus 1 strain KOS, UniProt P17402); experiment: dTMP (thymidylate) kinase assay, crude extracts; assay type: biochemical; settings: HSV-1 KOS
Description: (§3) The thymidylate kinase and synthase assays were performed according to known procedures (see, Cheng, Y.-C. & Prusoff, W. H. (1974) Anal. Biochem. 60:545-550; Roberts, D. (1966) Biochemistry 5:3546-3548; Dolnick, B. J. & Cheng, Y. C. (1977) J. Biol. Chem. 252:7697-7703). dThd phosphorylase activity was determined by monitoring conversion of [^14 C]dThd to [14 C] thymine using high performance liquid chromatography (HPLC). Briefly, after a 30 min incubation of enzyme extract with radiolabeled dThd at 37° C., the reaction was stopped by addition of 25% trichloroacetic acid. After neutralization and centrifugation, the supernatants were loaded on to an Alltech Lichrosorb RP-18 column, and the column was eluted at a rate of 1 ml/min with 5 mM KH2 PO4 (pH 3.5)--10% methanol. Fractions of 1 ml were collected and radioactivity associated with dThd and thymine (as previously determined by retention times of authentic markers measured by their absorbance at 265 nm) was measured by scintillation counting. For evaluation of whether 5'-Et-dThd could serve substrate for dThd phosphorylase, reactions were carried out as described as above, except that 5'-Et-dThd was used instead of [^14 C]dThd; metabolites were then analyzed by HPLC as described above.

[8] = target: T2, host dTMP kinase (Homo sapiens, UniProt P23919); experiment: dTMP (thymidylate) kinase assay, crude extracts of HSV-2 (333)-infected HeLa BU cells; assay type: biochemical; settings: 25 μM dTMP substrate, read-out: IC50 of dTMP kinase (reflects host dTMP kinase activity)
T2 construct: endogenous in cells; host or cells: HSV-2 (333)-infected HeLa BU cells, extract
T2 sequence (P23919 whole entry): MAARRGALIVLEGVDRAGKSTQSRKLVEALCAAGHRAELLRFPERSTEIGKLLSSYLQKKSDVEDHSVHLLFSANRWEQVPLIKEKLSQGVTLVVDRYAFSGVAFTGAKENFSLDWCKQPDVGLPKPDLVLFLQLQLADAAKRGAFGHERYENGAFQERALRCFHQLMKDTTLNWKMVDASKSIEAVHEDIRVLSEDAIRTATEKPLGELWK
Description: as §3

[9] = target: HSV-1 B3 dThd kinase (BVDU resistant variant) (Human alphaherpesvirus 1 strain SC16, UniProt P06479); experiment: dThd kinase assay in vitro, enzyme extracts; assay type: biochemical, HSV-1 (strain B3); settings: enzyme extracts of infected HeLa BU cells, 100 μM dThd
Description: Virus stocks. The viruses used were HSV-1 (strains KOS, SC16, B3 and Tr7) and HSV-2(strain 333). dThd kinase mutants of HSV (SC16), B3 and Tr7, were isolated in the presence of (E)-5-(2-bromovinyl)-2'-deoxyuridine (BVDU) at 10 μg/ml and ACV at 1 μg/ml, respectively (Darby, G., Field, H.J. & Salisbury, S. A. (1982) Nature (London) 289:81-83; Field, H.J & Neden J. (1982) Antiviral Res. 2:243254).
as §1

5'-ethynylthymidine [5'-Et-dThd]
effect on the antiviral effect of aphidicolin ([1]; 0.2 μM aphidicolin with varying concentrations of 5'-Et-dThd): significantly enhanced | effect on virus yield ([1]; 5'-Et-dThd by itself): no effect | % PFU with a 5'-Et-dThd conc. of 2.5 μM ([1]; Table II, drug (μM as in row; None = 5'-Et-dThd alone) plus 2.5 μM 5'-Et-dThd): 97% | % PFU with a 5'-Et-dThd conc. of 25 μM ([1]; Table II, drug (μM as in row; None = 5'-Et-dThd alone) plus 25 μM 5'-Et-dThd): 96% | % PFU with a 5'-Et-dThd conc. of 100 μM ([1]; Table II, drug (μM as in row; None = 5'-Et-dThd alone) plus 100 μM 5'-Et-dThd): 99% | %PFU with a 5'-Et-dThd conc. of 5 μM ([1]; Table III, aphidicolin 0.2 μM (None = 5'-Et-dThd alone) plus 5 μM 5'-Et-dThd): 100% | %PFU with a 5'-Et-dThd conc. of 20 μM ([1]; Table III, aphidicolin 0.2 μM (None = 5'-Et-dThd alone) plus 20 μM 5'-Et-dThd): 100% | % PFU with a 5'-Et-dThd conc. of 100 μM ([1]; Table III, aphidicolin 0.2 μM (None = 5'-Et-dThd alone) plus 100 μM 5'-Et-dThd): 100% | effect on human cytosolic dThd kinase [2]: does not exhibit inhibitory activity; also recorded: no effect; also recorded: No demonstrable effects | IC50 [3]: < 10 µM and 6 µM | accumulation of intracellular phosphorylated [14C]-dThd metabolites [4]: increased slightly | dThd phosphorylating activity, % of untreated control [5]: 25% | IC50 [6]: 5 µM | IC50 of virus-associated dTMP kinase ([7]; 25 μM dTMP substrate): 0.3 µM | IC50 of virus-associated dTMP kinase ([7]; 100 μM dTMP substrate): 0.8 µM | IC50 [8]: 60 µM | IC50 [9]: < 10 µM and 7 µM
